Source: US11084823B2, “Substituted pyrrolo[2,1-f][1,2,4]triazines as kinase inhibitors” (Daewoong Pharmaceutical Co., Ltd., priority 2017, dated 2021)

Columns and labels:
[1] = target: Recombinant purified human JAK3 (Homo sapiens (Human), UniProt P52333); assay: JAK3 kinase inhibitory activity, ADP-Glo kinase assay kit (Promega V9441); format: biochemical; conditions: ATP 5 uM, 4 ng JAK3 per reaction, 1 hour at 30° C., chemiluminescence
Experimental: (§1) JAK3 and BTK kinase inhibitory activities were measured for the compounds prepared in the above Examples through in vitro analysis on the ADP Glow (Glo) platform.
(§2) Specifically, the inhibitory activities of JAK3 and BTK kinase were measured using a JAK3 kinase assay kit (Promega, V9441) and a BTK kinase assay kit (Promega, V9071) which were purchased from Promega. Recombinant purified human JAK3 and BTK were diluted with 1× kinase reaction buffer (JAK3: 40 mM Tris-Cl, pH 7.5, 20 mM MgCl2, 0.1 mg/mL BSA and 50 uM DTT/BTK: 40 mM Tris-Cl, pH 7.5, 20 mM MgCl2, 0.1 mg/mL BSA, 2 mM MnCl2 and 50 uM DTT) and added to a 96 well plate (JAK3: final concentration of 4 ng per reaction/BTK: final concentration of 8 ng per reaction). […] After incubation (30° C.) for 1 hour, equivalent volume (25 uL per reaction) of ADP Glo was added and incubated (30° C.) for 40 minutes at room temperature. Then, a kinase detection reagent (50 uL per reaction) was added and incubated (30° C.) for 30 minutes at room temperature. The kinase activity was measured by chemiluminescence according to the instructions of ADP Glo kinase assay kit, and the inhibitory activity of the compounds according to the present invention was calculated.

[2] = target: Recombinant purified human BTK (Homo sapiens (Human), UniProt Q06187); assay: BTK kinase inhibitory activity, ADP-Glo kinase assay kit (Promega V9071); format: biochemical; conditions: ATP 10 uM, 8 ng BTK per reaction, 1 hour at 30° C., chemiluminescence
Chain of Recombinant purified human BTK (Q06187 whole entry): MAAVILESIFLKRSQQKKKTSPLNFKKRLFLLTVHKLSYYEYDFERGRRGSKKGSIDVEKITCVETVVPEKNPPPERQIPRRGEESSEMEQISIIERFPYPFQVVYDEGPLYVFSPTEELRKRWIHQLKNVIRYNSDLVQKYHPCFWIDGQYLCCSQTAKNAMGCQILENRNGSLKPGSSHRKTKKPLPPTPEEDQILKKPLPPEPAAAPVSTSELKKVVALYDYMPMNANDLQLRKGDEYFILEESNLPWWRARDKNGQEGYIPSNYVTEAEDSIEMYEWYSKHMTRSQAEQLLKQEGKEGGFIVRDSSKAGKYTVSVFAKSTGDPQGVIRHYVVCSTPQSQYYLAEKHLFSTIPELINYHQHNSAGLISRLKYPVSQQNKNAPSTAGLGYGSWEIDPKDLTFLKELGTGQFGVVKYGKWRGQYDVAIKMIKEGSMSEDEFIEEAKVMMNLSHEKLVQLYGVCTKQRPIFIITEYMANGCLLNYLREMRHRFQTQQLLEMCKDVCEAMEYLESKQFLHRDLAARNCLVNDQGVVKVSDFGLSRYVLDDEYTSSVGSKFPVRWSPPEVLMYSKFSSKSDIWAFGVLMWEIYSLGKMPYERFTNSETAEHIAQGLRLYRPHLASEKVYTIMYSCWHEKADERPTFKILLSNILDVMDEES
Experimental: as §1, §2

Chain of Recombinant purified human JAK3 (P52333 whole entry): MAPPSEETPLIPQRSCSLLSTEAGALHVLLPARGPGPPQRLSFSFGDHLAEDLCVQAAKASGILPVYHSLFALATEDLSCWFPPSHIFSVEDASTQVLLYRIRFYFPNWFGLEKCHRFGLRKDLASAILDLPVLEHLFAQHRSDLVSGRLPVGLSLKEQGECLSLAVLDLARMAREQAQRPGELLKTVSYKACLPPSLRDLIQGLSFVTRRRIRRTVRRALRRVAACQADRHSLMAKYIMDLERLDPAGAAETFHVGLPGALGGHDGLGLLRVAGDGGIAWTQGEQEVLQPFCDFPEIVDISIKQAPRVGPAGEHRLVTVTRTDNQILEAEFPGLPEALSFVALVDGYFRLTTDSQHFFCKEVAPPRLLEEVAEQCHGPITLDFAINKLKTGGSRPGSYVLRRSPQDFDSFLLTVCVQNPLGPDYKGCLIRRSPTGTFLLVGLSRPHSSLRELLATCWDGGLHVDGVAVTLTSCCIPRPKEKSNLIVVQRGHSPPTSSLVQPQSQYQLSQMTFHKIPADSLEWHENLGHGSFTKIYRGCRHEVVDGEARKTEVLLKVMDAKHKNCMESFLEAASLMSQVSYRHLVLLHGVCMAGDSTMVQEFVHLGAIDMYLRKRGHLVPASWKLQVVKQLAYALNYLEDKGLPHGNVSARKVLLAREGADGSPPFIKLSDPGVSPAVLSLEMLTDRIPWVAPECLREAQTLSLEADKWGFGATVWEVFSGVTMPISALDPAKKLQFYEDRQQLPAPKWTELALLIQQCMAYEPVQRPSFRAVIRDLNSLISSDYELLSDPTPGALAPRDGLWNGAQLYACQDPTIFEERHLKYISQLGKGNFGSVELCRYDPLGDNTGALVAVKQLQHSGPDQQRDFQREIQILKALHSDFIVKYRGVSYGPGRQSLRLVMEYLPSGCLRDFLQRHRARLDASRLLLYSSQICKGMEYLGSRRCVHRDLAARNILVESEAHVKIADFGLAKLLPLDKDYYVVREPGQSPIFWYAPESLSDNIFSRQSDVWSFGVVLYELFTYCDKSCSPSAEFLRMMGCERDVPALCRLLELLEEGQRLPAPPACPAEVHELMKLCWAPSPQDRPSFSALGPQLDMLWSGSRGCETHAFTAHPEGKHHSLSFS

Compound | IC50 [1] | IC50 [2]
C=CC(=O)Nc1cccc(Oc2nc(Nc3ccc(N4CCN(C)CC4)cc3)nn3cccc23)c1 [Example 2, N-(3-((2-((4-(4-methylpiperazin-1-yl)phenyl)amino)pyrrolo[2,1-f][1,2,4]triazin-4-yl)oxy)phenyl)acrylamide] | 0.0028 µM | 0.0227 µM
C=CC(=O)Nc1ccc(F)c(Oc2nc(Nc3ccn(C)c3)nn3cccc23)c1 [Example 9, N-(4-fluoro-3-((2-((1-methyl-1H-pyrrol-3-yl)amino)pyrrolo[2,1-f][1,2,4]triazin-4-yl)oxy)phenyl)acrylamide] | 0.0168 µM | 0.243 µM
C=CC(=O)Nc1ccc(F)c(Oc2nc(Nc3cnn(CC(C)C)c3)nn3cccc23)c1 [Example 10, N-(4-fluoro-3-((2-((1-isobutyl-1H-pyrazol-4-yl)amino)pyrrolo[2,1-f][1,2,4]triazin-4-yl)oxy)phenyl)acrylamide] | 0.0096 µM | 0.113 µM
C=CC(=O)Nc1cccc(Oc2nc(Nc3cnn(C4CC4)c3)nn3cccc23)c1 [Example 11, N-(3-((2-((1-cyclopropyl-1H-pyrazol-4-yl)amino)pyrrolo[2,1-f][1,2,4]triazin-4-yl)oxy)phenyl)acrylamide] | 0.0103 µM | 0.107 µM
C=CC(=O)Nc1ccc(F)c(Oc2nc(Nc3ccc(Oc4ccccc4)cc3)nn3cccc23)c1 [Example 13, N-(4-fluoro-3-((2-((4-phenoxyphenyl)amino)pyrrolo[2,1-f][1,2,4]triazin-4-yl)oxy)phenyl)acrylamide] | 0.0417 µM | 0.622 µM
C=CC(=O)Nc1ccc(F)c(Oc2nc(Nc3ccc4ncsc4c3)nn3cccc23)c1 [Example 14, N-(3-((2-((benzo[d]thiazol-6-yl)amino)pyrrolo[2,1-f][1,2,4]triazin-4-yl)oxy)-4-fluorophenyl)acrylamide] | 0.0098 µM | 0.0433 µM
C=CC(=O)Nc1ccc(F)c(Oc2nc(Nc3cccnc3)nn3cccc23)c1 [Example 15, N-(4-fluoro-3-((2-((pyridin-3-yl)amino)pyrrolo[2,1-f][1,2,4]triazin-4-yl)oxy)phenyl)acrylamide] | 0.0155 µM | 0.104 µM
C=CC(=O)Nc1cccc(Oc2nc(Nc3ccc(C(C)C)cc3)nn3cccc23)c1 [Example 16, N-(3-((2-((4-isopropylphenyl)amino)pyrrolo[2,1-f][1,2,4]triazin-4-yl)oxy)phenyl)acrylamide] | 0.02 µM | 0.123 µM
C=CC(=O)Nc1cccc(Oc2nc(Nc3ccc(OC)cc3)nn3cccc23)c1 [Example 17, N-(3-((2-((4-methoxyphenyl)amino)pyrrolo[2,1-f][1,2,4]triazin-4-yl)oxy)phenyl)acrylamide] | 0.0059 µM | 0.0686 µM
C=CC(=O)Nc1cccc(Oc2nc(Nc3ccsc3)nn3cccc23)c1 [Example 19, N-(3-((2-((thiophen-3-yl)amino)pyrrolo[2,1-f][1,2,4]triazin-4-yl)oxy)phenyl)acrylamide] | 0.0053 µM | 0.0629 µM
C=CC(=O)Nc1cccc(Oc2nc(Nc3ccn(C)n3)nn3cccc23)c1 [Example 20, N-(3-((2-((1-methyl-1H-pyrazol-3-yl)amino)pyrrolo[2,1-f][1,2,4]triazin-4-yl)oxy)phenyl)acrylamide] | 0.0577 µM | 0.647 µM
C=CC(=O)Nc1cccc(Oc2nc(Nc3ccc(CN(C)C)cc3)nn3cccc23)c1 [Example 21, N-(3-((2-((4-((dimethylamino)methyl)phenyl)amino)pyrrolo[2,1-f][1,2,4]triazin-4-yl)oxy)phenyl)acrylamide] | 0.0117 µM | 0.104 µM
C=CC(=O)Nc1cccc(Oc2nc(Nc3ccc(N4CCOCC4)cc3)nn3cccc23)c1 [Example 22, N-(3-((2-((4-morpholinophenyl)amino)pyrrolo[2,1-f][1,2,4]triazin-4-yl)oxy)phenyl)acrylamide] | 0.0053 µM | 0.0354 µM
C=CC(=O)Nc1cccc(Oc2nc(Nc3ccc(N(C)C)cc3)nn3cccc23)c1 [Example 23, N-(3-((2-((4-(dimethylamino)phenyl)amino)pyrrolo[2,1-f][1,2,4]triazin-4-yl)oxy)phenyl)acrylamide] | 0.0104 µM | 0.0602 µM
C=CC(=O)Nc1cccc(Oc2nc(Nc3cc4n(n3)CCN(C)C4)nn3cccc23)c1 [Example 24, N-(3-((2-((5-methyl-4,5,6,7-tetrahydropyrazolo[1,5-a]pyrazin-2-yl)amino)pyrrolo[2,1-f][1,2,4]triazin-4-yl)oxy)phenyl)acrylamide] | 0.0188 µM | 0.166 µM
C=CC(=O)Nc1ccc(F)c(Oc2nc(Nc3ccc(OC)cc3)nn3cccc23)c1 [Example 28, N-(4-fluoro-3-((2-((4-methoxyphenyl)amino)pyrrolo[2,1-f][1,2,4]triazin-4-yl)oxy)phenyl)acrylamide] | 0.0092 µM | 0.052 µM
C=CC(=O)Nc1ccc(F)c(Oc2nc(Nc3ccsc3)nn3cccc23)c1 [Example 30, N-(4-fluoro-3-((2-((thiophen-3-yl)amino)pyrrolo[2,1-f][1,2,4]triazin-4-yl)oxy)phenyl)acrylamide] | 0.0076 µM | 0.0666 µM

The next molecules have a lower IC50 [1] than those just listed; values first:

IC50 [1] | IC50 [2] | Compound
0.0022 µM | 0.0378 µM | C=CC(=O)Nc1cccc(Oc2nc(Nc3ccc(C(=O)N4CCOCC4)cc3)nn3cccc23)c1 [Example 18, N-(3-((2-((4-(morpholine-4-carbonyl)phenyl)amino)pyrrolo[2,1-f][1,2,4]triazin-4-yl)oxy)phenyl)acrylamide]
0.002 µM | 0.0231 µM | C=CC(=O)Nc1ccc(F)c(Oc2nc(Nc3ccc(C(=O)N4CCOCC4)cc3)nn3cccc23)c1 [Example 29, N-(4-fluoro-3-((2-((4-(morpholine-4-carbonyl)phenyl)amino)pyrrolo[2,1-f][1,2,4]triazin-4-yl)oxy)phenyl)acrylamide]
0.0014 µM | 0.0079 µM | C=CC(=O)Nc1ccc(F)c(Oc2nc(Nc3ccc(N4CCN(C)CC4)cc3)nn3cccc23)c1 [Example 25, N-(4-fluoro-3-((2-((4-(4-methylpiperazin-1-yl)phenyl)amino)pyrrolo[2,1-f][1,2,4]triazin-4-yl)oxy)phenyl)acrylamide]
0.0011 µM | 0.0136 µM | C=CC(=O)Nc1ccc(F)c(Oc2nc(Nc3cnn(C4CC4)c3)nn3cccc23)c1 [Example 1, N-(3-((2-((1-cyclopropyl-1H-pyrazol-4-yl)amino)pyrrolo[2,1-f][1,2,4]triazin-4-yl)oxy)-4-fluorophenyl)acrylamide]
0.0009 µM | 0.0062 µM | C=CC(=O)Nc1ccc(F)c(Oc2nc(Nc3cnn(CC(F)F)c3)nn3cccc23)c1 [Example 26, N-(3-((2-((1-(2,2-difluoroethyl)-1H-pyrazol-4-yl)amino)pyrrolo[2,1-f][1,2,4]triazin-4-yl)oxy)-4-fluorophenyl)acrylamide]
0.0007 µM | 0.0134 µM | C=CC(=O)Nc1cccc(Oc2nc(Nc3cnn(CC(F)F)c3)nn3cccc23)c1 [Example 4, N-(3-((2-((1-(2,2-difluoroethyl)-1H-pyrazol-4-yl)amino)pyrrolo[2,1-f][1,2,4]triazin-4-yl)oxy)phenyl)acrylamide]
0.0007 µM | 0.0075 µM | C=CC(=O)Nc1ccc(F)c(Oc2nc(Nc3ccc(N(C)C)cc3)nn3cccc23)c1 [Example 12, N-(3-((2-((4-(dimethylamino)phenyl)amino)pyrrolo[2,1-f][1,2,4]triazin-4-yl)oxy)-4-fluorophenyl)acrylamide]
0.0007 µM | 0.005 µM | C=CC(=O)Nc1ccc(F)c(Oc2nc(Nc3cnn(C)c3)nn3cccc23)c1 [Example 27, N-(4-fluoro-3-((2-((1-methyl-1H-pyrazol-4-yl)amino)pyrrolo[2,1-f][1,2,4]triazin-4-yl)oxy)phenyl)acrylamide]
0.0006 µM | 0.0127 µM | C=CC(=O)Nc1cccc(Oc2nc(Nc3cnn(C)c3)nn3cccc23)c1 [Example 3, N-(3-((2-((1-methyl-1H-pyrazol-4-yl)amino)pyrrolo[2,1-f][1,2,4]triazin-4-yl)oxy)phenyl)acrylamide]
0.0006 µM | 0.0087 µM | C=CC(=O)Nc1cccc(Oc2nc(Nc3cc(C)ns3)nn3cccc23)c1 [Example 5, N-(3-((2-((3-methylisothiazol-5-yl)amino)pyrrolo[2,1-f][1,2,4]triazin-4-yl)oxy)phenyl)acrylamide]
0.0006 µM | 0.0077 µM | C=CC(=O)Nc1ccc(F)c(Oc2nc(Nc3cnn(CC)c3)nn3cccc23)c1 [Example 8, N-(3-((2-((1-ethyl-1H-pyrazol-4-yl)amino)pyrrolo[2,1-f][1,2,4]triazin-4-yl)oxy)-4-fluorophenyl)acrylamide]
0.0005 µM | 0.01 µM | C=CC(=O)Nc1cccc(Oc2nc(Nc3cnn(CC)c3)nn3cccc23)c1 [Example 6, N-(3-((2-((1-ethyl-1H-pyrazol-4-yl)amino)pyrrolo[2,1-f][1,2,4]triazin-4-yl)oxy)phenyl)acrylamide]
0.0005 µM | 0.0107 µM | C=CC(=O)Nc1ccc(F)c(Oc2nc(Nc3cc(C)ns3)nn3cccc23)c1 [Example 7, N-(4-fluoro-3-((2-((3-methylisothiazol-5-yl)amino)pyrrolo[2,1-f][1,2,4]triazin-4-yl)oxy)phenyl)acrylamide]
